{"source": "patent US10526389B2", "about": "“Peptides and combinations of peptides for use in immunotherapy against lung cancer, including NSCLC and other cancers” (Immatics Biotechnologies GmbH, priority 2015, dated 2020)", "key": {"[1]": {"tested_on": "CD4+ T cells", "settings": "19 evaluable patients, prostate cancer-specific peptide vaccine (Feyerabend 2009; Widenmeyer 2008); cited from earlier work"}, "[2]": {"tested_on": "CD4 T cells", "experiment": "In vivo immunogenicity in vaccinated patients, intracellular cytokine staining (ICS) of CD4 T cells", "design": "species or system human", "settings": "IMA950 peptides, 16 patients, study IMA950-101", "description": "The T-cell proliferation analysis included 5 peptides with known in vivo immunogenicity as positive controls. The in vivo immunogenicity of these peptides was determined in blood samples of patients vaccinated with these peptides in clinical trials using intracellular cytokine staining (ICS) of CD4 T cells.\nIn principle, ICS assays analyze the quality of specific T cells in terms of effector functions. Therefore the peripheral mononuclear cells (PBMCs) were re-stimulated in vitro with the peptide of interest, a reference peptide and a negative control (here MOCK). Following the re-stimulated cells were stained for IFN-gamma, TNF-alpha, IL-2 and IL-10 production, as well as expression of the co-stimulatory molecule CD154. The counting of stained cells was performed on a flow cytometer (FIG. 5)."}, "[3]": {"tested_on": "CD4+ T cells", "experiment": "HLA class II T-cell proliferation assay (ProImmune, CFSE)", "assay_type": "cell-based, human", "settings": "for Number of positive donors: 21 donor samples, positive = over 0.02% stimulation above background; for Number of positive donors / Strength of response: mean in % above the background: 5 μM peptide, 7 days; for Strength of response: mean in % above the background: CD4+ T-cell proliferation (CFSE)", "description": "The experiments as follows summarize the results of T-cell Proliferation Assays of selected MHC class II TUMAPs. Nine of 10 tested peptide antigens tested positive for immunogenicity. […] Individual peptide antigens stimulated the CD4+ T-cell proliferation in up to 6 donors. […] Thus, it can be concluded that the newly tested peptides also have a high potential to induce T-cell responses in vaccine trials.\nIn order to characterize selected peptides for their potential especially as vaccine candidates, their in vitro immunogenicity was determined by analysis of T-cell proliferation using a commercial T-cell Proliferation Assay from the company ProImmune.\nHealthy donor CD8-depleted blood cells samples were tested with the selected peptides. The peptides that induce the proliferation of CD4+ T cells can potentially result in the development of a helper T-cell immune response, and therefore are considered to be immunogenic. The proliferation of CD4+ T cells was determined using carboxyfluorescein succinimidyl ester (CFSE) labelling. In proliferating cells, CFSE is distributed evenly to dividing cells. Thus, the proliferation can be measured as a decrease in CFSE fluorescence in the cells as analyzed.\nPeripheral blood mononuclear cell (PBMC) samples from healthy human donors were selected from the ProImmune cell bank based on HLA-DRB1 allele expression. CD8^+ T-cells were depleted from donor blood samples prior to use to avoid a false-positive response. The remaining CD4^+ T cells were labelled with CFSE and subsequently incubated with 5 μM of each selected peptide. Each peptide was tested in six replicated wells. The background was measured on each plate in six unstimulated control wells.\nAfter an incubation period of 7 days the cells were co-stained with anti-CD4 antibody and analyzed by flow cytometry. The degree of proliferation was determined by measuring a reduction in CFSE intensity.\nThe evaluation of flow cytometric data was performed using FlowJo Software (Tree Star, Inc.). The results of flow cytometric analysis were expressed as the ratio of the CD4^+ dim population to the total CD4^+ population. The degree of proliferation was expressed as percentage of stimulation above background, i.e. proportion of antigen stimulated CD4^+ CFSE dim cells minus the proportion of CD4^+ CFSE dim cells from unstimulated control wells. For each sample, a mean and the corresponding standard error of the mean (SEM) of the six replicates were calculated.\nDonors were chosen by HLA-DRB1 allele expression. The other two HLA class II loci (DQ and DP) have not been included into the analysis. The interesting DRB1 alleles were selected according to the frequencies of predicted peptide binding based on […] algorithm (Rammensee et al., 1999). For HLA-DR, binding was defined by a […] binding prediction score equal or greater than 18. This threshold score for binding was defined based on the analysis of binding scores of known published promiscuous HLA-DR ligands (Table 24).\nAll DRB1 alleles with binding frequency over 20% over all selected peptides were requested to be included into the donor panel) by ProImmune. 4 other rare DRB1 alleles (DRB1*10:01, DRB1*16:01, DRB1*08:01, and DRB1*13:03) were requested additionally.\nThe antigen-stimulated proliferation of CD4^+ T cells was considered as an indicator of in vitro immunogenicity and was investigated in a commercially available T-cell Proliferation Assay from ProImmune. The degree of antigen-stimulated CD4^+ T-cell proliferation was expressed as a percentage of stimulation above background. A response over 0.02% stimulation above background with SEM=2 (i.e. values two standard errors greater than background) was considered to be positive."}, "[4]": {"tested_on": "MHC class I", "experiment": "MHC binding assay (UV-ligand exchange, ELISA)", "design": "species or system human", "settings": "yield of UV-ligand exchange reaction", "description": "Candidate peptides for T cell based therapies according to the present invention were further tested for their MHC binding capacity (affinity). The individual peptide-MHC complexes were produced by UV-ligand exchange, where a UV-sensitive peptide is cleaved upon UV-irradiation, and exchanged with the peptide of interest as analyzed. Only peptide candidates that can effectively bind and stabilize the peptide-receptive MHC molecules prevent dissociation of the MHC complexes. To determine the yield of the exchange reaction, an ELISA was performed based on the detection of the light chain (62m) of stabilized MHC complexes. The assay was performed as generally described in Rodenko et al (Rodenko et al., 2006).\n96 well MAXISorp plates (NUNC) were coated over night with 2 ug/ml streptavidin in PBS at room temperature, washed 4× and blocked for 1 h at 37° C. in 2% BSA containing blocking buffer. Refolded HLA-A*02:01/MLA-001 monomers served as standards, covering the range of 15-500 ng/ml. Peptide-MHC monomers of the UV-exchange reaction were diluted 100 fold in blocking buffer. Samples were incubated for 1h at 37° C., washed four times, incubated with 2 ug/ml HRP conjugated anti-62m for 1h at 37° C., washed again and detected with TMB solution that is stopped with […]. Absorption was measured at 450 nm. Candidate peptides that show a high exchange yield (preferably higher than 50%, most preferred higher than 75%) are generally preferred for a generation and production of antibodies or fragments thereof, and/or T cell receptors or fragments thereof, as they show sufficient avidity to the MHC molecules and prevent dissociation of the MHC complexes."}}, "data": [{"substance": "BIR-002: IMA950 class II peptide, positive control with known in vivo immunogenicity (TLGEFLKLDRERAKN; listed as Homo sapiens) [reference compound]", "values": [{"measurement": "patients mounting a strong CD4+ T-cell response", "setting": "[1]", "value": 84, "unit": "%"}, {"measurement": "immune response by vaccination (ICS)", "setting": "[2]", "value": 100, "unit": "%"}, {"measurement": "Number of positive donors", "setting": "[3]", "value": 3}, {"measurement": "strength of stimulation response on average, above the background", "setting": "[3]; CD4+ CFSE dim cells minus unstimulated control", "value": 0.24, "unit": "%"}, {"measurement": "Strength of response: mean in % above the background", "setting": "[3]", "value": 0.24, "unit": "%"}]}, {"substance": "45 (KFLESKGYEF; listed as Homo sapiens) [compound 45]", "values": [{"measurement": "Peptide exchange (MHC class I binding score)", "setting": "[4]", "value": "+++ (50%-75% = +++)"}]}, {"substance": "31 (SYLDKVRAL; listed as Homo sapiens) [compound 31]", "values": [{"measurement": "Peptide exchange (MHC class I binding score)", "setting": "[4]", "value": "+++ (50%-75% = +++)"}]}, {"substance": "51 (NYLLESPHRF; listed as Homo sapiens) [compound 51]", "values": [{"measurement": "Peptide exchange (MHC class I binding score)", "setting": "[4]", "value": "+++ (50%-75% = +++)"}]}, {"substance": "60 (SYPAKLSFI; listed as Homo sapiens) [compound 60]", "values": [{"measurement": "Peptide exchange (MHC class I binding score)", "setting": "[4]", "value": "+++ (50%-75% = +++)"}]}, {"substance": "80 (AYLKEVEQL; listed as Homo sapiens) [compound 80]", "values": [{"measurement": "Peptide exchange (MHC class I binding score)", "setting": "[4]", "value": "+++ (50%-75% = +++)"}]}, {"substance": "MET-005: IMA950 class II peptide, positive control with known in vivo immunogenicity (TFSYVDPVITSISPKYG; listed as Homo sapiens) [reference compound]", "values": [{"measurement": "immune response by vaccination (ICS)", "setting": "[2]", "value": 100, "unit": "%"}, {"measurement": "Number of positive donors", "setting": "[3]", "value": 4}, {"measurement": "Strength of response: mean in % above the background", "setting": "[3]", "value": 0.31, "unit": "%"}]}, {"substance": "55 (IYPVKYTQTF; listed as Homo sapiens) [compound 55]", "values": [{"measurement": "Peptide exchange (MHC class I binding score)", "setting": "[4]", "value": "+++ (50%-75% = +++)"}]}, {"substance": "TGFBI-004: IMA910 class II peptide, positive control with known in vivo immunogenicity (TPPIDAHTRNLLRNH; listed as Homo sapiens) [reference compound]", "values": [{"measurement": "Number of positive donors", "setting": "[3]", "value": 2}, {"measurement": "Strength of response: mean in % above the background", "setting": "[3]", "value": 0.19, "unit": "%"}]}, {"substance": "COL1A2-001 (NKPSRLPFLDIAPLDIGGAD; listed as Homo sapiens)", "values": [{"measurement": "Number of positive donors", "setting": "[3]", "value": 2}, {"measurement": "Strength of response: mean in % above the background", "setting": "[3]", "value": 0.48, "unit": "%"}]}]}
